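All cell lines were grown in 96-well plates and treated with compound for 48 hours. At the TGI there is no net growth.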
Tests used:
Assay in all cases: growth of human tumour cells (NCI), 48 h
[1] = system: 786-0 renal
[2] = system: A498 renal
[3] = system: A549 NSCLC
[4] = system: ACHN renal
[5] = system: BT-549 breast
[6] = system: CAKI-1 renal
[7] = system: COLO 205 colon
[8] = system: DU-145 prostate
[9] = system: EKVX NSCLC
[10] = system: HCT-116 colon
[11] = system: HL-60(TB) leukemia
[12] = system: HOP-62 NSCLC
[13] = system: HOP-92 NSCLC
[14] = system: HS 578T breast
[15] = system: HT29 colon
[16] = system: IGROV1 ovarian
[17] = system: KM12 colon
[18] = system: LOX IMVI melanoma
[19] = system: M14 melanoma
[20] = system: MALME-3M melanoma
[21] = system: MCF7 breast
[22] = system: MDA-MB-435
[23] = system: MDA-N
[24] = system: NCI-H226 lung
[25] = system: NCI-H23 lung
[26] = system: NCI-H460 lung
[27] = system: NCI-H522 lung
[28] = system: OVCAR-4 ovarian
[29] = system: OVCAR-5 ovarian
[30] = system: PC-3 prostate
[31] = system: RXF 393 renal
[32] = system: SF-268 CNS
[33] = system: SF-295 CNS
[34] = system: SF-539 CNS
[35] = system: SK-MEL-2 melanoma
[36] = system: SK-MEL-28 melanoma
[37] = system: SK-MEL-5 melanoma
[38] = system: SK-OV-3 ovarian
[39] = system: SN12C renal
[40] = system: SNB-19 CNS
[41] = system: SNB-75 CNS
[42] = system: SW-620 colon
[43] = system: T-47D breast
[44] = system: TK-10 renal
[45] = system: U251 CNS
[46] = system: UACC-257 melanoma
[47] = system: UACC-62 melanoma
[48] = system: UO-31 renal
[49] = system: CCRF-CEM leukemia
[50] = system: HCT-15 colon
[51] = system: K-562 leukemia
[52] = system: MDA-MB-231 breast
[53] = system: MOLT-4 leukemia
[54] = system: NCI/ADR-RES ovarian
[55] = system: OVCAR-3 ovarian
[56] = system: OVCAR-8 ovarian
[57] = system: RPMI-8226 leukemia
[58] = system: HCC-2998 colon
[59] = system: SR leukemia

Measured: TGI

C/C(=N\NC(=S)N1CC2CCC(CC2)C1)c1ccncn1
2.56 µM: [44]
5.39 µM: [35]
4.21 µM: [9]
1.94 µM: [3]
2.36 µM: [19]
5.44 µM: [29]
3.78 µM: [16]
5.16 µM: [39]
2.02 µM: [34]
3.48 µM: [43]
3.9 µM: [13]
1.65 µM: [26]
6.23 µM: [45]
9.92 µM: [28]
1.5 µM: [10]
3.1 µM: [18]
2.44 µM: [6]
7.61 µM: [21]
1.44 µM: [11]
0.833 µM: [37]
3.62 µM: [32]
3.54 µM: [5]
< 0.0333 µM: [7]
15.4 µM: [23]
2.32 µM: [27]
5.9 µM: [22]
0.911 µM: [48]
2.84 µM: [2]
2.25 µM: [31]
3.16 µM: [17]
15 µM: [30] | [40]
2.33 µM: [24]
1.6 µM: [38]
2.4 µM: [25]
5.5 µM: [15]
12.1 µM: [12]
> 24.4 µM: [14]
1.42 µM: [20]
1.04 µM: [47]
2.86 µM: [1]
> 22.6 µM: [36]
6.26 µM: [8]
2.91 µM: [46]
3.4 µM: [41]
4.94 µM: [33]
18.4 µM: [42]
3.28 µM: [4]

CC(C)CC(N)C(=O)O (centres undefined)
> 100 µM: [1] | [2] | [3] | [4] | [5] | [6] | [49] | [7] | [8] | [10] | [50] | [11] | [12] | [13] | [14] | [15] | [16] | [51] | [17] | [18] | [19] | [20] | [21] | [52] | [22] | [23] | [53] | [24] | [25] | [26] | [27] | [54] | [55] | [28] | [56] | [30] | [57] | [31] | [32] | [33] | [34] | [35] | [36] | [37] | [38] | [39] | [40] | [41] | [42] | [43] | [44] | [45] | [46] | [47] | [48]

O=c1[nH]nc(-c2cccc(Br)c2)[nH]1
79.1 µM: [9]
79.7 µM: [14]
> 100 µM: [1] | [2] | [3] | [4] | [5] | [6] | [49] | [7] | [8] | [58] | [10] | [50] | [11] | [12] | [13] | [15] | [16] | [51] | [17] | [18] | [19] | [20] | [21] | [22] | [23] | [53] | [24] | [25] | [26] | [27] | [54] | [55] | [28] | [29] | [56] | [30] | [57] | [31] | [32] | [33] | [34] | [35] | [36] | [37] | [39] | [40] | [41] | [59] | [42] | [43] | [44] | [45] | [46] | [47] | [48]

O=C(c1ccc(Cl)cc1Cl)N(C(=O)N1CCCCC1)c1ccccc1
> 100 µM: [1] | [2] | [4] | [5] | [6] | [49] | [7] | [8] | [9] | [10] | [50] | [11] | [14] | [15] | [16] | [51] | [17] | [18] | [19] | [20] | [21] | [52] | [22] | [23] | [53] | [24] | [25] | [54] | [55] | [29] | [56] | [30] | [57] | [31] | [32] | [33] | [34] | [35] | [36] | [37] | [38] | [39] | [40] | [42] | [44] | [45] | [46] | [47] | [48]

From PubChem BioAssay (NCI)
